Assay results taken from US7465806B2, “Pyrrole-derivatives as factor Xa inhibitors” (SANOFI-AVENTIS Deutschland GmbH, priority 2004, dated 2008).

target: T1, human factor Xa (Homo sapiens, UniProt P00742); assay: Factor Xa chromogenic assay (inhibition of factor Xa activity); format: biochemical; conditions: inhibition constant for factor Xa; chromogenic substrate S-2765 140 μM, enzyme 0.5 nM, 25° C.; Ki calculated from IC50; read-out: Ki(FXa)
T1 construct: human factor Xa (Enzyme Research Laboratories, Inc; South Bend, Indiana); purchased Enzyme Research Laboratories, Inc; South Bend, Indiana
T1 sequence (P00742 235-488 limits assumed): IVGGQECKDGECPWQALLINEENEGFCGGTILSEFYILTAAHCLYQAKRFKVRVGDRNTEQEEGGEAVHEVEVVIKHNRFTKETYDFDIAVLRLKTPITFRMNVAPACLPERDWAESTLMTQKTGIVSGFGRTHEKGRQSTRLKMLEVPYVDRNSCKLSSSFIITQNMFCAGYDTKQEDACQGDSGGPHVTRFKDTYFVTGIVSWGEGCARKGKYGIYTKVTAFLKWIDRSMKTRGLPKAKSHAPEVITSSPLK
T1 sequence (P00742 41-179 partner limits assumed): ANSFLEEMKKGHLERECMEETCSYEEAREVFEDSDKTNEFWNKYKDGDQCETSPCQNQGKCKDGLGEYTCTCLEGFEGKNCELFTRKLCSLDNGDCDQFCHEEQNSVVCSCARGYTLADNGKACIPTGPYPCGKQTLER
Experimental: The ability of the compounds of the formulae I and Ia to inhibit factor Xa or factor VIIa or other enzymes like thrombin, plasmin, or trypsin can be assessed by determining the concentration of the compound of the formulae I and Ia that inhibits enzyme activity by 50%, i.e. the IC50 value, which was related to the inhibition constant Ki. Purified enzymes were used in chromogenic assays. The concentration of inhibitor that causes a 50% decrease in the rate of substrate hydrolysis was determined by linear regression after plotting the relative rates of hydrolysis (compared to the uninhibited control) versus the log of the concentration of the compound of formulae I and Ia. For calculating the inhibition constant Ki, the IC50 value was corrected for competition with substrate using the formula Ki=IC50/{1+(substrate concentration/Km)} wherein Km is the Michaelis-Menten constant (Chen and Prusoff, Biochem. Pharmacol. 22 (1973), 3099-3108; I. H. Segal, Enzyme Kinetics, 1975, John Wiley & Sons, New York, 100-125; which were incorporated herein by reference). a) Factor Xa Assay
In the assay for determining the inhibition of factor Xa activity TBS-PEG buffer (50 mM Tris-HCl, pH 7.8,200 mM NaCl, 0.05% (w/v) PEG-8000, 0.02% (w/v) NaN3) was used. The IC50 was determined by combining in appropriate wells of a Costar half-area microtiter plate 25 μl human factor Xa (Enzyme Research Laboratories, Inc.; South Bend, Indiana) in TBS-PEG; 40 μl 10% (v/v) DMSO in TBS-PEG (uninhibited control) or various concentrations of the compound to be tested diluted in 10% (v/v) DMSO in TBS-PEG; and substrate S-2765 (N(α)-benzyloxycarbonyl-D-Arg-Gly-L-Arg-p-nitroanilide; Kabi Pharmacia, Inc.; Franklin, Ohio) in TBS-PEG.
The assay was performed by pre-incubating the compound of formulae I and Ia plus enzyme for 10 min. Then the assay was initiated by adding substrate to obtain a final volume of 100 μl. The initial velocity of chromogenic substrate hydrolysis was measured by the change in absorbance at 405 nm using a Bio-tek Instruments kinetic plate reader (Ceres UV900HDi) at 25° C. during the linear portion of the time course (usually 1.5 min after addition of substrate). The enzyme concentration was 0.5 nM and substrate concentration was 140 μM.

SMILES	Ki [nM]
CC(C)N1CCC(NC(=O)c2cccn2Cc2cc(-c3ccc(Cl)s3)on2)CC1 [Example 1, 1-[5-(5-Chloro-thiophen-2-yl)-isoxazol-3-ylmethyl]-1H-pyrrole-2-carboxylic acid (1-isopropyl-piperidin-4-yl)-amide]	77
COc1cccc(Cn2cccc2C(=O)NC2CCN(C(C)C)CC2)c1 [Example 2, 1-(3-Methoxy-benzyl)-1H-pyrrole-2-carboxylic acid (1-isopropyl-piperidin-4-yl)-amide]	8060
CC(C)N1CCC(NC(=O)c2cc([N+](=O)[O-])cn2Cc2cc(-c3ccc(Cl)s3)on2)CC1 [Example 3, 1-[5-(5-Chloro-thiophen-2-yl)-isoxazol-3-ylmethyl]-4-nitro-1H-pyrrole-2-carboxylic acid (1-isopropyl-piperidin-4-yl)-amide]	43
Cc1cc(C)n(Cc2cc(-c3ccc(Cl)s3)on2)c1C(=O)NC1CCN(C(C)C)CC1 [Example 4, 1-[5-(5-Chloro-thiophen-2-yl)-isoxazol-3-ylmethyl]-3,5-dimethyl-1H-pyrrole-2-carboxylic acid (1-isopropyl-piperidin-4-yl)-amide]	11
CC(C)N1CCC(NC(=O)c2cc(C(=O)N3CCCOCC3)cn2CC(=O)Nc2ccc(Cl)cn2)CC1 [Example 5, 1-[(5-Chloro-pyridin-2-ylcarbamoyl)-methyl]-4-(perhydro-1,4-oxazepine-4-carbonyl)-1H-pyrrole-2-carboxylic acid (1-isopropyl-piperidin-4-yl)-amide]	81
CC(C)N1CCC(NC(=O)c2ccc(C(=O)N3CCCOCC3)n2CC(=O)Nc2ccc(Cl)cn2)CC1 [Example 6, 1-[(5-Chloro-pyridin-2-ylcarbamoyl)-methyl]-5-(perhydro-1,4-oxazepine-4-carbonyl)-1H-pyrrole-2-carboxylic acid (1-isopropyl-piperidin-4-yl)-amide]	902
CC(C)N1CCC(NC(=O)c2ccc(C(=O)N3CCCOCC3)n2Cc2cc(-c3ccc(Cl)s3)on2)CC1 [Example 7, 1-[5-(5-Chloro-thiophen-2-yl)-isoxazol-3-ylmethyl]-5-(perhydro-1,4-oxazepine-4-carbonyl)-1H-pyrrole-2-carboxylic acid (1-isopropyl-piperidin-4-yl)-amide]	249
Cc1c(CCC(=O)O)c(C)n(Cc2cc(-c3ccc(Cl)s3)on2)c1C(=O)NC1CCN(C(C)C)CC1 [Example 8, 3-[1-[5-(5-Chloro-thiophen-2-yl)-isoxazol-3-ylmethyl]-5-(1-isopropyl-piperidin-4-ylcarbamoyl)-2,4-dimethyl-1H-pyrrol-3-yl]-propionic acid]	152
CC(C)N1CCC(NC(=O)c2ccc(C(=O)OCc3ccccc3)n2Cc2cc(-c3ccc(Cl)s3)on2)CC1 [Example 9, 1-[5-(5-Chloro-thiophen-2-yl)-isoxazol-3-ylmethyl]-5-(1-isopropyl-piperidin-4-ylcarbamoyl)-1H-pyrrole-2-carboxylic acid benzyl ester]	997
COC(=O)c1ccc(C(=O)NC2CCN(C(C)C)CC2)n1Cc1cc(-c2ccc(Cl)s2)on1 [Example 10, 1-[5-(5-Chloro-thiophen-2-yl)-isoxazol-3-ylmethyl]-5-(1-isopropyl-piperidin-4-ylcarbamoyl)-1H-pyrrole-2-carboxylic acid methyl ester]	7
CC(C)N1CCC(NC(=O)c2ccc(C(=O)O)n2Cc2cc(-c3ccc(Cl)s3)on2)CC1 [Example 11, 1-[5-(5-Chloro-thiophen-2-yl)-isoxazol-3-ylmethyl]-5-(1-isopropyl-piperidin-4-ylcarbamoyl)-1H-pyrrole-2-carboxylic acid]	294
CC(C)N1CCC(NC(=O)c2cc(C(=O)OCc3ccccc3)n(CC(=O)Nc3ccc(Cl)cn3)c2)CC1 [Example 12, 1-[(5-Chloro-pyridin-2-ylcarbamoyl)-methyl]-4-(1-isopropyl-piperidin-4-ylcarbamoyl)-1H-pyrrole-2-carboxylic acid benzyl ester]	34900
CC(C)N1CCC(NC(=O)c2cc(C(=O)OCc3ccccc3)n(Cc3cc(-c4ccc(Cl)s4)on3)c2)CC1 [Example 13, 1-[5-(5-Chloro-thiophen-2-yl)-isoxazol-3-ylmethyl]-4-(1-isopropyl-piperidin-4-ylcarbamoyl)-1H-pyrrole-2-carboxylic acid benzyl ester]	9580
CC(C)N1CCC(NC(=O)c2cc([N+](=O)[O-])cn2CC(=O)Nc2ccc(Cl)cn2)CC1 [Example 14, 1-[(5-Chloro-pyridin-2-ylcarbamoyl)-methyl]-4-nitro-1H-pyrrole-2-carboxylic acid (1-isopropyl-piperidin-4-yl)-amide]	59
COC(=O)c1cc(C(=O)NC2CCN(C(C)C)CC2)cn1CC(=O)Nc1ccc(Cl)cn1 [Example 15, 1-[(5-Chloro-pyridin-2-ylcarbamoyl)-methyl]-4-(1-isopropyl-piperidin-4-ylcarbamoyl)-1H-pyrrole-2-carboxylic acid methyl ester]	41300
COC(=O)c1cc(C(=O)NC2CCN(C(C)C)CC2)cn1Cc1cc(-c2ccc(Cl)s2)on1 [Example 16, 1-[5-(5-Chloro-thiophen-2-yl)-isoxazol-3-ylmethyl]-4-(1-isopropyl-piperidin-4-ylcarbamoyl)-1H-pyrrole-2-carboxylic acid methyl ester]	1440
CC(C)N1CCC(NC(=O)c2cc(C(=O)O)n(Cc3cc(-c4ccc(Cl)s4)on3)c2)CC1 [Example 17, 1-[5-(5-Chloro-thiophen-2-yl)-isoxazol-3-ylmethyl]-4-(1-isopropyl-piperidin-4-ylcarbamoyl)-1H-pyrrole-2-carboxylic acid]	8990
COCCNC(=O)c1ccc(C(=O)NC2CCN(C(C)C)CC2)n1Cc1cc(-c2ccc(Cl)s2)on1 [Example 19, 1-[5-(5-Chloro-thiophen-2-yl)-isoxazol-3-ylmethyl]-1H-pyrrole-2,5-di carboxylic acid 2-[(1-isopropyl-piperidin-4-yl)-amide] 5-[(2-methoxy-ethyl)-amide]]	88
COCCN(C)C(=O)c1ccc(C(=O)NC2CCN(C(C)C)CC2)n1Cc1cc(-c2ccc(Cl)s2)on1 [Example 20, 1-[5-(5-Chloro-thiophen-2-yl)-isoxazol-3-ylmethyl]-1H-pyrrole-2,5-dicarboxylic acid 2-[(1-isopropyl-piperidin-4-yl)-amide] 5-[(2-methoxy-ethyl)-methyl-amide]]	57
CC(C)N1CCC(NC(=O)c2ccc(-c3ccccc3)n2Cc2cc(-c3ccc(Cl)s3)on2)CC1 [Example 21, 1-[5-(5-Chloro-thiophen-2-yl)-isoxazol-3-ylmethyl]-5-phenyl-1H-pyrrole-2-carboxylic acid (1-isopropyl-piperidin-4-yl)-amide]	5
Cc1c(S(=O)(=O)N2CCCOCC2)c(C)n(Cc2cc(-c3ccc(Cl)s3)on2)c1C(=O)NC1CCN(C(C)C)CC1 [Example 22, 1-[5-(5-Chloro-thiophen-2-yl)-isoxazol-3-ylmethyl]-3,5-dimethyl-4-(perhydro-1,4-oxazepine-4-sulfonyl)-1H-pyrrole-2-carboxylic acid (1-isopropyl-piperidin-4-yl)-amide]	112
Cc1c(Br)c(C)n(Cc2cc(-c3ccc(Cl)s3)on2)c1C(=O)NC1CCN(C(C)C)CC1 [Example 23, 4-Bromo-1-[5-(5-chloro-thiophen-2-yl)-isoxazol-3-ylmethyl]-3,5-dimethyl-1H-pyrrole-2-carboxylic acid (1-isopropyl-piperidin-4-yl)-amide]	5
Cc1c(Br)c(C)n(CC(=O)Nc2ccc(Cl)cn2)c1C(=O)NC1CCN(C(C)C)CC1 [Example 24, 4-Bromo-1-[(5-chloro-pyridin-2-ylcarbamoyl)-methyl]-3,5-dimethyl-1H-pyrrole-2-carboxylic acid (1-isopropyl-piperidin-4-yl)-amide]	11
Cc1c(C=O)c(C)n(Cc2cc(-c3ccc(Cl)s3)on2)c1C(=O)NC1CCN(C(C)C)CC1 [Example 25, 1-[5-(5-Chloro-thiophen-2-yl)-isoxazol-3-ylmethyl]-4-formyl-3,5-dimethyl-1H-pyrrole-2-carboxylic acid (1-isopropyl-piperidin-4-yl)-amide]	24
